{
  "source": "patent US8389523B2",
  "about": "“Substituted quinoxaline and an agrochemical composition thereof” (Kumiai Chemical Industry Co., Ltd., priority 2007, dated 2013);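 note: grade 0 to 5 of growth suppression where 5 is 90% or more and 0 below 10%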",
  "type_in_all_cases": "in vivo",
  "parameters_in_all_cases": "scale not given here",
  "key": {"[1]": {"system": "Abutilon theophrasti medicus", "assay": "Herbicidal effects in upland field foliar treatment (Test Example 3)", "details": "1000 g of the active ingredient per hectare, 14th day after the treatment, wettable powder, criteria of Table 138", "summary_of_the_method": "(§1)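 Seeds sown in upland soil, grown 2 weeks in greenhouse; whole-plant overhead spray of diluted wettable powder at 1000 g a.i./ha (1000 L/ha); kept in greenhouse; effects graded by criteria at 14 d.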"}, "Amaranthus viridis L. [2]": {"system": "Amaranthus viridis L.", "assay": "Herbicidal effects in upland field foliar treatment (Test Example 3)", "details": "1000 g of the active ingredient per hectare, 14th day after the treatment, wettable powder, criteria of Table 138", "summary_of_the_method": "as §1"}, "[3]": {"system": "Echinochloa crus-galli (L.) P. Beauv. var. crus-galli", "assay": "Herbicidal effects in upland field foliar treatment (Test Example 3)", "details": "1000 g of the active ingredient per hectare, 14th day after the treatment, wettable powder, criteria of Table 138", "summary_of_the_method": "as §1"}, "[4]": {"system": "Abutilon theophrasti medicus", "assay": "Herbicidal effects in upland field soil treatment (Test Example 2)", "details": "1000 g active ingredient per hectare, 21st day after treatment, criteria of Table 138", "summary_of_the_method": "(§2)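 Upland soil, seeds sown and covered → diluted WP sprayed uniformly onto soil surface (1000 L/ha; 1000 g a.i./ha) → greenhouse → effect scored day 21.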"}, "Amaranthus viridis L. [5]": {"system": "Amaranthus viridis L.", "assay": "Herbicidal effects in upland field soil treatment (Test Example 2)", "details": "1000 g active ingredient per hectare, 21st day after treatment, criteria of Table 138", "summary_of_the_method": "as §2"}, "[6]": {"system": "Scirpus juncoides Roxb. var. ohwianus. T. Koyama", "assay": "Herbicidal effects in paddy field soil treatment (Test Example 1)", "details": "paddy field soil treatment; 1000 g of the active ingredient per hectare; wettable powder added dropwise on water surface; 21st day after treatment", "summary_of_the_method": "(§3)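 Sow seeds in puddled, leveled paddy soil; waterlog to 3 cm depth. On the following day apply water-diluted wettable powder onto the water surface (1000 g a.i./ha). Grow in greenhouse and assess herbicidal effect at day 21.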"}, "[7]": {"system": "Echinochloa oryzicola Vasing", "assay": "Herbicidal effects in paddy field soil treatment (Test Example 1)", "details": "paddy field soil treatment; 1000 g of the active ingredient per hectare; wettable powder added dropwise on water surface; 21st day after treatment", "summary_of_the_method": "as §3"}, "[8]": {"system": "Monochoria vaginalis (Burm. f.) Presl var. plantaginea (Roxb.) Solms-Laub.", "assay": "Herbicidal effects in paddy field soil treatment (Test Example 1)", "details": "paddy field soil treatment; 1000 g of the active ingredient per hectare; wettable powder added dropwise on water surface; 21st day after treatment", "summary_of_the_method": "as §3"}},
  "data": [
    {"smiles": "COc1cc(OC)cc(-n2c(=O)c(C(=O)C3=C(O)CCCC3=O)nc3ccccc32)c1", "note": "[II-173]", "values": [
      {"measurement": "herbicidal effects on Abutilon theophrasti medicus", "setting": "[1]", "value": 5},
      {"measurement": "herbicidal effects on Amaranthus viridis L.", "setting": "Amaranthus viridis L. [2]", "value": 5},
      {"measurement": "herbicidal effects on Echinochloa crus-galli (L.) P. Beauv. var. crus-galli", "setting": "[3]", "value": 4},
      {"measurement": "herbicidal effect (index) on Abutilon theophrasti medicus", "setting": "[4]", "value": 4},
      {"measurement": "herbicidal effect (index) on Amaranthus viridis L.", "setting": "Amaranthus viridis L. [5]", "value": 5},
      {"measurement": "Herbicidal effects index, Scirpus juncoides Roxb. var. ohwianus. T. Koyama", "setting": "[6]", "value": 5},
      {"measurement": "Herbicidal effects index, Echinochloa oryzicola Vasing", "setting": "[7]", "value": 5},
      {"measurement": "Herbicidal effects index, Monochoria vaginalis (Burm. f.) Presl var. plantaginea (Roxb.) Solms-Laub.", "setting": "[8]", "value": 5}
    ]},
    {"smiles": "COc1cc(-n2c(=O)c(C(=O)C3=C(O)CCCC3=O)nc3ccccc32)cc(OC)c1OC", "note": "[II-185]", "values": [
      {"measurement": "herbicidal effects on Abutilon theophrasti medicus", "setting": "[1]", "value": 5},
      {"measurement": "herbicidal effects on Amaranthus viridis L.", "setting": "Amaranthus viridis L. [2]", "value": 5},
      {"measurement": "herbicidal effects on Echinochloa crus-galli (L.) P. Beauv. var. crus-galli", "setting": "[3]", "value": 4},
      {"measurement": "herbicidal effect (index) on Abutilon theophrasti medicus", "setting": "[4]", "value": 5},
      {"measurement": "herbicidal effect (index) on Amaranthus viridis L.", "setting": "Amaranthus viridis L. [5]", "value": 5},
      {"measurement": "Herbicidal effects index, Scirpus juncoides Roxb. var. ohwianus. T. Koyama", "setting": "[6]", "value": 5},
      {"measurement": "Herbicidal effects index, Echinochloa oryzicola Vasing", "setting": "[7]", "value": 4},
      {"measurement": "Herbicidal effects index, Monochoria vaginalis (Burm. f.) Presl var. plantaginea (Roxb.) Solms-Laub.", "setting": "[8]", "value": 5}
    ]},
    {"smiles": "COc1ccc(-n2c(=O)c(C(=O)C3=C(O)CCCC3=O)nc3ccc(F)cc32)cc1", "note": "[II-188]", "values": [
      {"measurement": "herbicidal effects on Abutilon theophrasti medicus", "setting": "[1]", "value": 5},
      {"measurement": "herbicidal effects on Amaranthus viridis L.", "setting": "Amaranthus viridis L. [2]", "value": 5},
      {"measurement": "herbicidal effects on Echinochloa crus-galli (L.) P. Beauv. var. crus-galli", "setting": "[3]", "value": 4},
      {"measurement": "herbicidal effect (index) on Abutilon theophrasti medicus", "setting": "[4]", "value": 5},
      {"measurement": "herbicidal effect (index) on Amaranthus viridis L.", "setting": "Amaranthus viridis L. [5]", "value": 5},
      {"measurement": "Herbicidal effects index, Scirpus juncoides Roxb. var. ohwianus. T. Koyama", "setting": "[6]", "value": 5},
      {"measurement": "Herbicidal effects index, Echinochloa oryzicola Vasing", "setting": "[7]", "value": 5},
      {"measurement": "Herbicidal effects index, Monochoria vaginalis (Burm. f.) Presl var. plantaginea (Roxb.) Solms-Laub.", "setting": "[8]", "value": 5}
    ]},
    {"smiles": "COc1ccc(-n2c(=O)c(C(=O)C3=C(O)CCCC3=O)nc3cccc(F)c32)cc1", "note": "[II-189]", "values": [
      {"measurement": "herbicidal effects on Abutilon theophrasti medicus", "setting": "[1]", "value": 5},
      {"measurement": "herbicidal effects on Amaranthus viridis L.", "setting": "Amaranthus viridis L. [2]", "value": 5},
      {"measurement": "herbicidal effects on Echinochloa crus-galli (L.) P. Beauv. var. crus-galli", "setting": "[3]", "value": 5},
      {"measurement": "herbicidal effect (index) on Abutilon theophrasti medicus", "setting": "[4]", "value": 5},
      {"measurement": "herbicidal effect (index) on Amaranthus viridis L.", "setting": "Amaranthus viridis L. [5]", "value": 5},
      {"measurement": "Herbicidal effects index, Scirpus juncoides Roxb. var. ohwianus. T. Koyama", "setting": "[6]", "value": 5},
      {"measurement": "Herbicidal effects index, Echinochloa oryzicola Vasing", "setting": "[7]", "value": 5},
      {"measurement": "Herbicidal effects index, Monochoria vaginalis (Burm. f.) Presl var. plantaginea (Roxb.) Solms-Laub.", "setting": "[8]", "value": 5}
    ]},
    {"smiles": "O=C1CCCC(O)=C1C(=O)c1nc2c(Cl)cccc2n(-c2ccccc2)c1=O", "note": "[II-190]", "values": [
      {"measurement": "herbicidal effects on Abutilon theophrasti medicus", "setting": "[1]", "value": 5},
      {"measurement": "herbicidal effects on Amaranthus viridis L.", "setting": "Amaranthus viridis L. [2]", "value": 5},
      {"measurement": "herbicidal effects on Echinochloa crus-galli (L.) P. Beauv. var. crus-galli", "setting": "[3]", "value": 4},
      {"measurement": "herbicidal effect (index) on Abutilon theophrasti medicus", "setting": "[4]", "value": 5},
      {"measurement": "herbicidal effect (index) on Amaranthus viridis L.", "setting": "Amaranthus viridis L. [5]", "value": 4},
      {"measurement": "Herbicidal effects index, Scirpus juncoides Roxb. var. ohwianus. T. Koyama", "setting": "[6]", "value": 5},
      {"measurement": "Herbicidal effects index, Echinochloa oryzicola Vasing", "setting": "[7]", "value": 5},
      {"measurement": "Herbicidal effects index, Monochoria vaginalis (Burm. f.) Presl var. plantaginea (Roxb.) Solms-Laub.", "setting": "[8]", "value": 5}
    ]},
    {"smiles": "COc1ccc(-n2c(=O)c(C(=O)C3=C(O)CCCC3=O)nc3ccc(Cl)cc32)cc1", "note": "[II-196]", "values": [
      {"measurement": "herbicidal effects on Abutilon theophrasti medicus", "setting": "[1]", "value": 5},
      {"measurement": "herbicidal effects on Amaranthus viridis L.", "setting": "Amaranthus viridis L. [2]", "value": 5},
      {"measurement": "herbicidal effects on Echinochloa crus-galli (L.) P. Beauv. var. crus-galli", "setting": "[3]", "value": 5},
      {"measurement": "herbicidal effect (index) on Abutilon theophrasti medicus", "setting": "[4]", "value": 4},
      {"measurement": "herbicidal effect (index) on Amaranthus viridis L.", "setting": "Amaranthus viridis L. [5]", "value": 5},
      {"measurement": "Herbicidal effects index, Scirpus juncoides Roxb. var. ohwianus. T. Koyama", "setting": "[6]", "value": 5},
      {"measurement": "Herbicidal effects index, Echinochloa oryzicola Vasing", "setting": "[7]", "value": 4},
      {"measurement": "Herbicidal effects index, Monochoria vaginalis (Burm. f.) Presl var. plantaginea (Roxb.) Solms-Laub.", "setting": "[8]", "value": 5}
    ]},
    {"smiles": "O=C1CCCC(O)=C1C(=O)c1nc2ccccc2n(-c2ccc(OCC3CC3)cc2)c1=O", "note": "[II-208]", "values": [
      {"measurement": "herbicidal effects on Abutilon theophrasti medicus", "setting": "[1]", "value": 5},
      {"measurement": "herbicidal effects on Amaranthus viridis L.", "setting": "Amaranthus viridis L. [2]", "value": 5},
      {"measurement": "herbicidal effects on Echinochloa crus-galli (L.) P. Beauv. var. crus-galli", "setting": "[3]", "value": 4},
      {"measurement": "herbicidal effect (index) on Abutilon theophrasti medicus", "setting": "[4]", "value": 5},
      {"measurement": "herbicidal effect (index) on Amaranthus viridis L.", "setting": "Amaranthus viridis L. [5]", "value": 5},
      {"measurement": "Herbicidal effects index, Scirpus juncoides Roxb. var. ohwianus. T. Koyama", "setting": "[6]", "value": 5},
      {"measurement": "Herbicidal effects index, Echinochloa oryzicola Vasing", "setting": "[7]", "value": 5},
      {"measurement": "Herbicidal effects index, Monochoria vaginalis (Burm. f.) Presl var. plantaginea (Roxb.) Solms-Laub.", "setting": "[8]", "value": 5}
    ]},
    {"smiles": "Cc1ccc(-n2c(=O)c(C(=O)C3=C(O)CCCC3=O)nc3ccccc32)cc1C", "note": "[II-211]", "values": [
      {"measurement": "herbicidal effects on Abutilon theophrasti medicus", "setting": "[1]", "value": 5},
      {"measurement": "herbicidal effects on Amaranthus viridis L.", "setting": "Amaranthus viridis L. [2]", "value": 5},
      {"measurement": "herbicidal effects on Echinochloa crus-galli (L.) P. Beauv. var. crus-galli", "setting": "[3]", "value": 5},
      {"measurement": "herbicidal effect (index) on Abutilon theophrasti medicus", "setting": "[4]", "value": 5},
      {"measurement": "herbicidal effect (index) on Amaranthus viridis L.", "setting": "Amaranthus viridis L. [5]", "value": 5},
      {"measurement": "Herbicidal effects index, Scirpus juncoides Roxb. var. ohwianus. T. Koyama", "setting": "[6]", "value": 5},
      {"measurement": "Herbicidal effects index, Echinochloa oryzicola Vasing", "setting": "[7]", "value": 5},
      {"measurement": "Herbicidal effects index, Monochoria vaginalis (Burm. f.) Presl var. plantaginea (Roxb.) Solms-Laub.", "setting": "[8]", "value": 5}
    ]}
  ]
}
